Measured values as given in patent US12350272B2, “Pyridopyrimidinone derivatives for use as AXL inhibitors” (OSCOTEC INC., priority 2018, dated 2025).
Structures can show the parent of a compound that is named as a salt. Where two headings read alike, the source gives them in different places.

How the values were obtained:
[1] = molecular target: Truncated human Axl (Homo sapiens, UniProt P30530); assay: Kinase inhibition assay (inhibition of enzymatic Axl kinase activity); type: biochemical
Procedure: Compounds of Formula (I) as obtained above were assayed to measure their capacity to inhibit Axl kinase. Axl belongs to the recently identified TYRO-3, Axl, MERTK (TAM) receptor tyrosine kinase (RTK) family. […] Upon GAS6 binding, Axl homodimerizes and subsequently induces several downstream signaling pathways involved in cell proliferation, migration, invasion, anti-apoptosis, angiogenesis, metastasis, and therapeutic resistance. Upregulation of Axl has been reported in a wide variety of cancer cell lines as well as in cancer specimens from patients with breast cancer, acute leukemia, colorectal cancer, lung cancer, melanoma, ovarian cancer, or prostate cancer, among others.
Compounds of Formula (I) as obtained above were initially diluted to […] in 100% DMSO (CALBIOCHEM™) for storage and made into kinase buffer solution to create a compound concentration ranging from 1 uM and 10 uM. Serial dilutions of the compounds were dispensed into a 96-well plate (GREINER BIOSCIENCES™) at 6 μL each. Truncated human Axl (CARNA BIOSCIENCES™) were diluted in kinase buffer and added to the compound solutions and pre-incubated for 30 minutes at room temperature. […] The reaction mixture was incubated for 1 hour. Following the incubation, the stop solution made with EDTA, water, and Lance detection buffer ([…]™) were added (12 μL each) to stop phosphorylation.

[2] = molecular target: JAK2 (Homo sapiens (Human), UniProt O60674); assay: Biochemical inhibition of JAK2; details: Table 2, range of IC50 value
[3] = system: Hs578T cells; assay: Cell viability assay (ATPLite), Hs578T; type: cell-based, human; details: 72 hour incubation
Excerpt: (§1) Axl is a member of the TAM (TYRO3-Axl-MER) family of receptor tyrosine kinases, which, when activated, can increase tumor cell survival, proliferation, migration and invasion, angiogenesis, and tumor-host interactions. Upon GAS6 binding to Axl, Axl subsequently activates the signaling pathways downstream such as phosphoinositide 3-kinase (PI3K), RAt sarcoma (RAS), and extracellular signal regulated kinase (ERK).
(§2) This cell line was maintained with an Roswell Park Memorial Institute (RPMI) medium (HYCLONE™) containing 10% bovine calf serum (BCS; HYCLONE™) supplemented iron. The cells were seeded at 2×10^4 cells in 96-well culture plates, and serially diluted compounds were then added. After a 72 hour incubation period at 37° C., cell viability was measured using the ATPLite 1 step assay (PERKIN-ELMER™) that is based on the quantification of ATP from viable cells.

[4] = system: MDA-MB-231 cells; assay: Cell viability assay (ATPLite), MDA-MB-231; type: cell-based, human; details: 72 hour incubation
Excerpt: as §1, §2

[5] = system: CT26-Luciferase colon cancer cells; assay: CT26 peritoneal in vivo metastasis model; details: 30 mg/kg/day
Procedure: (§4) Compounds of Formula (I) as obtained above were tested in metastasis models using mouse B16F10 melanoma and CT26-Luciferase colon cancer cells. […] Cell line was harvested by trypsinization when they reached 70-80% confluence. A day before cell inoculation, C57BL/6 mice were maintained under pathogen-free conditions according to SPF guideline (room temperature, 40-60% humidity) and housed in the ABMRC at the Yonsei University.
(§5) Mice were randomized, and three mice for B16F10 model and five mice for CT26 peritoneal metastasis model were allocated per group. Lung metastasis was measured after 14 days of cell inoculation. […] Vehicle for oral administration consists of 10% sodium sulphobutylether β-cyclodextrine (SBECD) in 50 mM citrate buffer (pH 3.0). Animals were monitored for mortality and clinical signs (such as illness and behavioral changes) daily throughout the study. In B16F10 model, after mice sacrificed, organs were fixed with 10% of Formalin solution for 1 day. The FFPE block was sliced by 4 μm thinness on coating slides for applying the H&E staining. Then, tumor nodule counting was calculated. CT26 metastasis was determined by measuring luminescence intensity in peritoneal cavity.

[6] = system: mouse 4T1 breast cancer cells; assay: 4T1 spontaneous (orthotopic) metastasis model, combination with anti-PD-1 antibody; type: in vivo, BALB/c female mice
Excerpt: A day before cell inoculation, fur on the right flank of BALB/C mice was depilated using hair trimmer. On the following day, the skin area around the injection site was disinfected by mildly swabbing with surgical spirit. To establish allografts, BALB/c female mice (7-weeks age) were implanted orthotopically into the mammary gland with 5×10^6 syngeneic 4T1 cells. Mice were sacrificed when average tumor volume reached 1500 mm^3.
Mice were randomized based on tumor volume (˜50 mm^3) and five mice were allocated per group. Tumor grafts were measured after approximately 2 days of cell inoculation when they become palpable. […] After treatment for 28 days, all mice were sacrificed. 4T1 lung metastasis was determined by counting the tumor nodules through H&E staining. 4T1 solid tumor on primary site was measured by a tumor 3D scanner, TM900 (Peria, Belgium). […] The metastatic nodule was measured by microscopic observation.
BALB/c female mice (7-weeks age) were implanted orthotopically into the mammary gland with 5×10^6 syngeneic 4T1 cells. […] Mice were sacrificed on day 28 and lung metastasis was evaluated by counting nodules.

[7] = system: mouse B16F10 melanoma cells; assay: B16F10 lung in vivo metastasis model; details: oral 30 mg/kg/day
Procedure: as §4, §5

[8] = system: 4T1; assay: Anti-tumor activity in immunodeficient mice; type: in vivo; details: 30 mg/kg/day
[9] = system: mouse breast 4T1 cancer cells; assay: Anti-tumor activity in breast 4T1 syngeneic in vivo cancer model; details: BALB/C mice
Procedure: A day before cell inoculation, fur on the right flank of BALB/C mice was depilated using hair trimmer. On the following day, the skin area around the injection site was disinfected by mildly swabbing with surgical spirit. To establish allografts, cells were suspended in serum-free media and mixed 1:1 with matrigel to obtain 1×10^6 cells/100 μL. […] Mice were randomized based on tumor volume and six mice were allocated per group. Tumor grafts were measured after approximately 5 days of cell inoculation when they become palpable. […] Tumor growth inhibition (TGI) was calculated as follows: % TGI=[1−(Treatment TVFinal−Treatment TVinitial)/(Control TVFinal−Control TVInitial)]*100

[10] = system: MDA-MB-231 breast cancer cell line; assay: Transwell migration assay; type: cell-based, human; details: even at 0.03 μM, compared to R428
Procedure: (§3) In order to test whether the compounds of Formula (I) show the effect on inhibition of metastasis, cell migratory and invasive behaviors analyzed using transwell and matrigel invasion assays in MDA-MB-231 breast cancer cell line. […] Cell migration was performed by the transwell assay (BD Biosciences, CA, USA). Briefly, 5×10^4 cells in serum-free RPMI-1640 were seeded on a membrane (8.0-μm pore size) inserted in the wells of a 24-well plate. RPMI-1640 containing 10% FBS was added to the lower chamber of each well. After 24 h, cells in the upper chamber were removed by cotton swab and the cells that had reached the underside of the membrane were fixed and stained with crystal violet (1% in methyl alcohol) for 10 min. The cells located on the underside of the filter (5 fields/filter) were counted. The cell invasion assay was carried out similarly, except that the matrigel (BD Biosciences, CA, USA) was added to each well 6 h before cells were seeded on the membrane. After 48 h, matrigel and any remaining cells in the upper chamber were removed by cotton swabs. Cells on the lower surface of the membrane were fixed and stained as described above. Data are representative of results from three independent fields of stained membrane.

[11] = system: MDA-MB-231 breast cancer cell line; assay: Matrigel invasion assay; type: cell-based, human; details: even at 0.03 μM, compared to R428
Procedure: as §3

[12] = Table 2, range of IC50 value, read-out: Axl
[13] = day 15, oral QD 30 mg/kg/day for 14 days

JAK2, sequence (O60674 whole entry, species assumed): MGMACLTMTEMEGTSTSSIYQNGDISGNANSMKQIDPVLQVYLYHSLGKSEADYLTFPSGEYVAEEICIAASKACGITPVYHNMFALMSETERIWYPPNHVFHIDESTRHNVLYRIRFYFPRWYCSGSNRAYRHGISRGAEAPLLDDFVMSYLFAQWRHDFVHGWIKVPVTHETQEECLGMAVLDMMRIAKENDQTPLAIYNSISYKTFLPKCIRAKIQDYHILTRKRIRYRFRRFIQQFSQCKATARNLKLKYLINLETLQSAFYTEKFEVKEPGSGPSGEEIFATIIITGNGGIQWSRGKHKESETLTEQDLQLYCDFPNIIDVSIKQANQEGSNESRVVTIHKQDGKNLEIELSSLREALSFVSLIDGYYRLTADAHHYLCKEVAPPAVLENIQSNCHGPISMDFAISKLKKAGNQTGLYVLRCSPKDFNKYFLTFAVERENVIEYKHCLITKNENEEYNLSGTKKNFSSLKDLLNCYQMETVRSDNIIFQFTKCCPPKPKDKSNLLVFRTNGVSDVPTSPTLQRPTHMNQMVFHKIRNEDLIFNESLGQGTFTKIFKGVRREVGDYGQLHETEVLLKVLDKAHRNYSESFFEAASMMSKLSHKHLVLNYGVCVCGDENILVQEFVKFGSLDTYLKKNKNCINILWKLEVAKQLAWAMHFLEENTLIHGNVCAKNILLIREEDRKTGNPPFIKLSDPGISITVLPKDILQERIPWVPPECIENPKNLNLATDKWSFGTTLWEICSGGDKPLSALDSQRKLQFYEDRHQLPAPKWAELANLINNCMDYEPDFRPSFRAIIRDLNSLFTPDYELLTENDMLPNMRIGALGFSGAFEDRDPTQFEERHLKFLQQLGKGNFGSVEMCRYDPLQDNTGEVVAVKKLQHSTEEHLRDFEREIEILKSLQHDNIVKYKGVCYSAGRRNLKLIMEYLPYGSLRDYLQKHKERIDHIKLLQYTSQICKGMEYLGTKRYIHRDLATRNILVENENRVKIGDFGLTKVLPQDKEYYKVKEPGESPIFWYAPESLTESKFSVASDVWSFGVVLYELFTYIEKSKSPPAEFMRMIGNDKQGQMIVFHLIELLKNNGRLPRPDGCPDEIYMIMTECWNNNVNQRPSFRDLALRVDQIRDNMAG
Truncated human Axl, sequence (P30530 26-894 limits assumed): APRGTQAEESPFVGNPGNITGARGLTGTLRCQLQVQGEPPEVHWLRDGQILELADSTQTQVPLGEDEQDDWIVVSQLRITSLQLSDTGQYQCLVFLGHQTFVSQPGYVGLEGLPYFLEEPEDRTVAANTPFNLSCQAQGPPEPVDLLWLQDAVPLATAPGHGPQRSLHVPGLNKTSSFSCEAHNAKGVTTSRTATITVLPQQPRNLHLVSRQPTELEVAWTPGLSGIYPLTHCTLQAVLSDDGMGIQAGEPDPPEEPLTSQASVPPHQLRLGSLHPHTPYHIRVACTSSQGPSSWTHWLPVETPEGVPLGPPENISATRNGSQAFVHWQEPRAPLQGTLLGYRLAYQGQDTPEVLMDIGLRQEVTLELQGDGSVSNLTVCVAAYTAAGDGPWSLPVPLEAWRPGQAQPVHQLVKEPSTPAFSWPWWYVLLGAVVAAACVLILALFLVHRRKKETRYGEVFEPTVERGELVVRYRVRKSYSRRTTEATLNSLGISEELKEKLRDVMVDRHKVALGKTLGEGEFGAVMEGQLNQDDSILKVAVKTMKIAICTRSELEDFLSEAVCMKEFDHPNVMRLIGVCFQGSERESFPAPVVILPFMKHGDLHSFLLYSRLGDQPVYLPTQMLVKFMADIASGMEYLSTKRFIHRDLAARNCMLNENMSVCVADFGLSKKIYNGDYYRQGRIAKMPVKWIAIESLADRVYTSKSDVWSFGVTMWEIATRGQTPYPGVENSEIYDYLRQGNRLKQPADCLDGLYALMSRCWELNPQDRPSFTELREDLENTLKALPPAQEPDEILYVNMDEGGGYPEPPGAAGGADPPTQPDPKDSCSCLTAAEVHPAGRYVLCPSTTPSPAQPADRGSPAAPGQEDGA

Row | IC50 [2] [nM] | GI50 ([4]; Homo sapiens, MDA-MB-231, 72 h) [nM] | SMILES | IC50 ([1]; Table 1, read-out: Axl (IC50)) [nM] | IC50 [1, 12] [nM] | GI50 ([3]; Homo sapiens, Hs-578T, 72 h) [nM] | also measured
1 | 101 to 1000 | 11000 to 30000 | Nc1nc(Nc2ccc3c(c2)CC[C@@H](N2CCCC2)CC3)nn1-c1cc2c(nn1)-c1ccccc1CCC2 [Compound R428, reference compound] | – | – | 3100 to 10000 | –
2 | 11 to 100 | 3100 to 10000 | CCc1nc(C(N)=O)c(Nc2ccc(N3CCC(N4CCN(C)CC4)CC3)c(OC)c2)nc1NC1CCOCC1 [ASP2215, gilteritinib, reference compound] | – | – | 3100 to 10000 | –
3 | 1000 to 10000 | 3100 to 10000 | CN1CCC(Nc2nc(Nc3ccc(Oc4ccc(F)c(F)c4)cc3)c3c(=O)[nH]cc(Br)c3n2)CC1 [Compound 241, 8-bromo-4-((4-(3,4-difluorophenoxy)phenyl)amino)-2-((1-methylpiperidin-4-yl)amino)pyrido[4,3-d]pyrimidin-5(6H)-one hydrochloride] | 11 to 100 | 11 to 100 | 3100 to 10000 | –
4 | 101 to 1000 | – | CN1CCC(Nc2nc(Nc3ccc(OC4CCCCC4)cc3)c3c(=O)[nH]cc(Br)c3n2)CC1 [Compound 233, 8-bromo-4-((4-(cyclohexyloxy)phenyl)amino)-2-((1-methylpiperidin-4-yl)amino)pyrido[4,3-d]pyrimidin-5(6H)-one hydrochloride] | 101 to 1000 | 101 to 1000 | – | GI50 ([3]; hydrochloride): 1100 to 3000 nM; GI50 ([4]; hydrochloride): 3100 to 10000 nM

Row | SMILES | IC50 [2] [nM] | GI50 ([4]; Homo sapiens, MDA-MB-231, 72 h) [nM] | IC50 ([1]; Table 1, read-out: Axl (IC50)) [nM] | IC50 [1, 12] [nM] | GI50 ([3]; Homo sapiens, Hs-578T, 72 h) [nM] | also measured
5 | CN1CCC(Nc2nc(Nc3ccc(Oc4cccc(F)c4)cc3)c3c(=O)[nH]cc(Br)c3n2)CC1 [Compound 240, 8-bromo-4-((4-(3-fluorophenoxy)phenyl)amino)-2-((1-methylpiperidin-4-yl)amino)pyrido[4,3-d]pyrimidin-5(6H)-one] | 101 to 1000 | – | 11 to 100 | 11 to 100 | – | GI50 [3]: 3100 to 10000 nM; GI50 [4]: 3100 to 10000 nM
6 | CN1CCC(Nc2nc(Nc3ccc(Oc4ccccc4)cc3)c3c(=O)[nH]cc(Br)c3n2)CC1.Cl [Compound 226, 8-bromo-2-((1-methylpiperidin-4-yl)amino)-4-((4-phenoxyphenyl)amino)pyrido[4,3-d]pyrimidin-5(6H)-one hydrochloride] | 101 to 1000 | – | – | – | – | luminescence intensity in the peritoneal cavity ([5]; CT-26 peritoneal metastasis model): drastically reduced; survival of mice ([5]; QD, vehicle mice started to die from day 9): alive during the treatment period; total metastatic burden and number of larger metastases (medium+large, ≥5 mm diameter) ([6]; 30 mg/kg/day, 4 weeks): significantly suppressed; tumor growth on primary site (mammary fat pad) ([6]; 4 weeks treatment, no different efficacy between groups): inhibition of tumor growth; metastasis into the lung (tumor nodules) ([6]; day 28, compound 226 30 mg/kg/day and/or anti-PD-1 antibody twice/week for 4 weeks): significantly decreased; tolerability (clinical signs) ([7]; B16F10 lung and CT-26 peritoneal metastasis models): well tolerated; lung metastasis in gross lung specimens ([7]; B16F10 model): dramatically inhibited lung metastasis; tumor nodules ([7]; B16F10 model): no tumor nodules
7 | CN1CCC(Nc2nc(Nc3ccc(Oc4cccc(F)c4)cc3)c3c(=O)[nH]cc(Br)c3n2)CC1.Cl [Compound 238, 8-bromo-4-((4-(3-fluorophenoxy)phenyl)amino)-2-((1-methylpiperidin-4-yl)amino)pyrido[4,3-d]pyrimidin-5(6H)-one hydrochloride] | 101 to 1000 | – | 11 to 100 | 11 to 100 | – | anti-tumor effect [8]: no anti-tumor effect; average tumor volume [9, 13]: 669±60 mm^3; tumor growth inhibition (TGI) [9, 13]: 59%; tolerability (clinical signs, body weight) ([9]; oral QD 30 mg/kg/day): well tolerated; inhibition of kinase activity of Axl ([1]; result in words): strong inhibition; migration of MDA-MB-231 cells [10]: significantly inhibited; GI50 ([3]; hydrochloride): 1100 to 3000 nM; GI50 ([4]; hydrochloride): 1100 to 3000 nM; invasion of MDA-MB-231 cells [11]: significantly inhibited
